Reference: ChEMBL document CHEMBL1909046, “DrugMatrix in vitro pharmacology data”

Legend:
[1] = target: Tyrosine-protein kinase Lck (Homo sapiens, UniProt P06239); experiment: DRUGMATRIX: Protein Tyrosine Kinase, LCK enzyme inhibition (substrate: Poly(Glu:Tyr)); assay type: cell-based, Insect cells; conditions: insect cells; Not Active = under 50% inhibition at 10 µM
[2] = target: Tyrosine-protein kinase Fyn (Homo sapiens, UniProt P06241); experiment: biochemical; assay type: cell-based, Insect cells; conditions: insect cells;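 note: enzymatic inhibition of Fyn kinase activity measured with Poly(Glu:Tyr) as the phosphorylation substrate; in other assays of this panel Not Active means under 50% inhibition at 10 µM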
Adenosine receptor A1 = target: T1, Adenosine receptor A1 (Homo sapiens, UniProt P30542); assay type: cell membranes, CHO, Membrane; conditions: cho;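 note: radioligand binding assay at the adenosine A1 receptor, with DPCPX serving as the labelled ligand; in other assays of this panel Not Active means under 50% inhibition at 10 µM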
T1 sequence (P30542 whole entry): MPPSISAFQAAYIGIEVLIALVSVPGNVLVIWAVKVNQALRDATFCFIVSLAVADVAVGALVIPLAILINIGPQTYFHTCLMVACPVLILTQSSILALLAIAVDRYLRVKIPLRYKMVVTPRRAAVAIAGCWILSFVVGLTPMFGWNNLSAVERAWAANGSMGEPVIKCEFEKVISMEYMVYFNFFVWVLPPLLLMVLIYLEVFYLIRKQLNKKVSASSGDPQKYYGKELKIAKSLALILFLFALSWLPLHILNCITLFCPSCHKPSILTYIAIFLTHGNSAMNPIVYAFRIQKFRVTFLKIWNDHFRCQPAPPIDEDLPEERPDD

[3] = DRUGMATRIX: Sodium/nucleoside co-transporter radioligand binding (ligand: nitrobenzylthioinosine); assay type: cell membranes, Cavia porcellus, Dunkin-Hartley, Cerebral cortex, Membrane; conditions: Not Active = under 50% inhibition at 10 µM
Leukotriene C4 synthase = target: T2, Leukotriene C4 synthase (Cavia porcellus, UniProt A6XA80); experiment: biochemical; assay type: tissue-based, Lung;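 note: enzyme inhibition assay of leukotriene C4 synthase, using LTA4 as the substrate; in other assays of this panel Not Active means under 50% inhibition at 10 µM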
T2 sequence (A6XA80 whole entry): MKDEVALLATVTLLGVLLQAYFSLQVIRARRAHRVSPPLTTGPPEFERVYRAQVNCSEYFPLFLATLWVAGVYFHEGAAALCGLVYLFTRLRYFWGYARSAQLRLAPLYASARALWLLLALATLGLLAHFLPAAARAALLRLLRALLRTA

[4] = DRUGMATRIX: Purinergic P2X radioligand binding (ligand: [3H] alpha, beta-Methylene-ATP); assay type: cell membranes, Oryctolagus cuniculus, New Zealand albino, Urinary bladder, Membrane; conditions: Not Active = under 50% inhibition at 10 µM
[5] = target: T3, Nitric oxide synthase, inducible (Mus musculus, UniProt P29477); design: species or system Escherichia coli;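 note: inhibition of iNOS enzyme activity measured with L-arginine as substrate; in other assays of this panel Not Active means under 50% inhibition at 10 µM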
T3 sequence (P29477 whole entry): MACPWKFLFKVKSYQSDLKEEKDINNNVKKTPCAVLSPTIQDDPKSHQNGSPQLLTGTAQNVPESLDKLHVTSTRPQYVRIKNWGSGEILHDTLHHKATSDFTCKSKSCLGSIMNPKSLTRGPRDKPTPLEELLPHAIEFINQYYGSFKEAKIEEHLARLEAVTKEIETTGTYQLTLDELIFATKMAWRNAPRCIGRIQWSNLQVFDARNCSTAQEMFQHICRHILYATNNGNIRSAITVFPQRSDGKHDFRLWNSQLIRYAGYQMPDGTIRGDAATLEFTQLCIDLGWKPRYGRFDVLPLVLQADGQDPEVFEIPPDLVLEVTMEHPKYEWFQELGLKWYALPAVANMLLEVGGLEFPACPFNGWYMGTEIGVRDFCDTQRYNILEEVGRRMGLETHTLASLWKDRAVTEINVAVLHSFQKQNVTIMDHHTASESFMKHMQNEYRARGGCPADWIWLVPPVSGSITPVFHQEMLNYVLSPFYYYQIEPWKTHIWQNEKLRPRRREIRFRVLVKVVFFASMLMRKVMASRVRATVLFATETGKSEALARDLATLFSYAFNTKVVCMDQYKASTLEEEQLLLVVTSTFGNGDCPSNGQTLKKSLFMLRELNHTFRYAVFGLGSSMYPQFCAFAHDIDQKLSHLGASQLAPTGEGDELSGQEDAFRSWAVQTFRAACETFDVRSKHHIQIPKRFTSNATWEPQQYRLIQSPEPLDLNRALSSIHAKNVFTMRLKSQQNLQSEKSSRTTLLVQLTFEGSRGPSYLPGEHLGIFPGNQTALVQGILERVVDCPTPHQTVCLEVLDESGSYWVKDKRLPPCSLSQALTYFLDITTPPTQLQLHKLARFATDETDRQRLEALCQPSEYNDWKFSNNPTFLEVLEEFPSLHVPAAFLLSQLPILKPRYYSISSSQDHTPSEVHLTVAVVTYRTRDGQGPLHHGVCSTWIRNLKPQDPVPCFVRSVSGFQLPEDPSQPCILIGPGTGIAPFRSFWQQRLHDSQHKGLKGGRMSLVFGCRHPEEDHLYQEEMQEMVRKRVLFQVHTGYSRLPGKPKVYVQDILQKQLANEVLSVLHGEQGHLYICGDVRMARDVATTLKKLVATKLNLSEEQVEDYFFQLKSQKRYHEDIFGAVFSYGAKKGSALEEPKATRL

Interstitial collagenase = target: T4, Interstitial collagenase (Homo sapiens, UniProt P03956); experiment: biochemical; assay type: tissue-based, Rheumatoid synovial fibroblasts
T4 sequence (P03956 whole entry): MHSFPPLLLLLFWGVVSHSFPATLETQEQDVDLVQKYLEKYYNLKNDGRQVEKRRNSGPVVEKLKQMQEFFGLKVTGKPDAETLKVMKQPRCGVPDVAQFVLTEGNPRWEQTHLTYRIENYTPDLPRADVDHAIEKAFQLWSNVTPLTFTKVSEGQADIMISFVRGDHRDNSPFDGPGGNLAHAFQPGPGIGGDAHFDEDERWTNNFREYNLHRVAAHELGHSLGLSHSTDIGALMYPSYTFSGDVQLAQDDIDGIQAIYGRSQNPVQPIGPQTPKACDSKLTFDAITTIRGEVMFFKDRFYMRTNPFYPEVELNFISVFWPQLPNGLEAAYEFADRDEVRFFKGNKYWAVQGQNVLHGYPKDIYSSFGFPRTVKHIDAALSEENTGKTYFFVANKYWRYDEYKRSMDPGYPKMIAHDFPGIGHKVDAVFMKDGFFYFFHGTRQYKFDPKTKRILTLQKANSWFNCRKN

Cytochrome P450 2E1 = Cytochrome P450 2E1 (Homo sapiens, UniProt P05181); conditions: bti-tn-5b1-4; note: in other assays of this panel Not Active means under 50% inhibition at 10 µM
Cytochrome P450 2E1, sequence (P05181 whole entry): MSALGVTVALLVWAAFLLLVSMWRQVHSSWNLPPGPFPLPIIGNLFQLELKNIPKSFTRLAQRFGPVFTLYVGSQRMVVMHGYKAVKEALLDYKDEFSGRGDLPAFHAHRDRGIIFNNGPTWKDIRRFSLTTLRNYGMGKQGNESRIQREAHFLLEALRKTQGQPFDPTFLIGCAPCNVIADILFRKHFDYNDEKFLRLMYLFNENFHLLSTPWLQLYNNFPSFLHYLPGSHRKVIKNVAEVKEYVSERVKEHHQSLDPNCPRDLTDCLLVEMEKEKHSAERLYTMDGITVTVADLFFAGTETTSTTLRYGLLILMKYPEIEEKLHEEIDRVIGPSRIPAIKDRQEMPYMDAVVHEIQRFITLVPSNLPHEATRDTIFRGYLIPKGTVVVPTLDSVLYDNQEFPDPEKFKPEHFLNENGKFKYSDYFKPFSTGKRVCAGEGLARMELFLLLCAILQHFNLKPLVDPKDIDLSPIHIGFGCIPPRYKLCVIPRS

Tyrosine-protein kinase Fyn, sequence (P06241 whole entry): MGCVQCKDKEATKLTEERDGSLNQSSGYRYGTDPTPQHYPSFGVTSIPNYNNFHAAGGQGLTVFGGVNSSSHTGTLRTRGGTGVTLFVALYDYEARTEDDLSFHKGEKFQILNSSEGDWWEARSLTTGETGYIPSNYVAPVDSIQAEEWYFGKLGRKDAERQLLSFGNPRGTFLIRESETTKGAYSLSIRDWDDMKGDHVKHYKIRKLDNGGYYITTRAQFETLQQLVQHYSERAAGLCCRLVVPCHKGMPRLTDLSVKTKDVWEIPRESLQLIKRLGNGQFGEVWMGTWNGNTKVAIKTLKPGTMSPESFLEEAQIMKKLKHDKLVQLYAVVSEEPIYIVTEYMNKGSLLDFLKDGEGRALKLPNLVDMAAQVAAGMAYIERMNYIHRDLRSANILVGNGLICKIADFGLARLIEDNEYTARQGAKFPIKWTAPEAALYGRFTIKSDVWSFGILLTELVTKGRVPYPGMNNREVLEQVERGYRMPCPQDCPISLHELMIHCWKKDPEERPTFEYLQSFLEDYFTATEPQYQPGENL
Tyrosine-protein kinase Lck, sequence (P06239 whole entry): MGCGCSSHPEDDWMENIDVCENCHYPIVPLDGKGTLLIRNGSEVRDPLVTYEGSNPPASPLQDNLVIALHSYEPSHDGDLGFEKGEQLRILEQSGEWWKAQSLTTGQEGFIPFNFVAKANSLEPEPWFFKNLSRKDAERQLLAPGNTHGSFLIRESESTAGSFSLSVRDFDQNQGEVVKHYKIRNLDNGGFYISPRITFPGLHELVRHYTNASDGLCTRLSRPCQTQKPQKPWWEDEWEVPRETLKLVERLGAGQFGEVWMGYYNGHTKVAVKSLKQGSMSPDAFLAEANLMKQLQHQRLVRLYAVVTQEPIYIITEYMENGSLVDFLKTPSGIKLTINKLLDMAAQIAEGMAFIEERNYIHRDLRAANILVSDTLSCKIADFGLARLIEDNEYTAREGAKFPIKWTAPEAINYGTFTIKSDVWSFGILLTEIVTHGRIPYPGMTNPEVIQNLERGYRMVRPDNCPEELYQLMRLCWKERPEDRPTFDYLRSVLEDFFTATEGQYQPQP

Clc1cc(Cl)c(OCC#CI)cc1Cl [HALOPROGIN]
Not Active: IC50 [1] | IC50 [2] | IC50 (Adenosine receptor A1) | IC50 [3] | Ki [3] | IC50 (Leukotriene C4 synthase) | IC50 [4] | Ki [4] | IC50 [5] | IC50 (Interstitial collagenase) | IC50 (Cytochrome P450 2E1) | Ki (Cytochrome P450 2E1)

O=c1[nH]cnc2c1ncn2[C@H]1CC[C@@H](CO)O1 [DIDANOSINE]
Not Active: IC50 [1] | IC50 [2] | IC50 (Adenosine receptor A1) | IC50 [3] | Ki [3] | IC50 (Leukotriene C4 synthase) | IC50 [4] | Ki [4] | IC50 [5] | IC50 (Interstitial collagenase) | IC50 (Cytochrome P450 2E1) | Ki (Cytochrome P450 2E1)

Cl.NC[C@H]1CC[C@H](C(=O)Oc2ccc(CCC(=O)O)cc2)CC1 [CETRAXATE HYDROCHLORIDE]
Not Active: IC50 [1] | IC50 [2] | IC50 (Adenosine receptor A1) | IC50 [3] | Ki [3] | IC50 (Leukotriene C4 synthase) | IC50 [4] | Ki [4] | IC50 [5] | IC50 (Interstitial collagenase) | IC50 (Cytochrome P450 2E1) | Ki (Cytochrome P450 2E1)

COc1cc([C@@H]2c3cc4c(cc3[C@H](O)[C@H]3COC(=O)[C@H]23)OCO4)cc(OC)c1OC [PODOFILOX]
Not Active: IC50 [1] | IC50 [2] | IC50 (Adenosine receptor A1) | IC50 [3] | Ki [3] | IC50 (Leukotriene C4 synthase) | IC50 [4] | Ki [4] | IC50 [5] | IC50 (Interstitial collagenase) | IC50 (Cytochrome P450 2E1) | Ki (Cytochrome P450 2E1)

COc1cc(/C=C/C(=O)O)ccc1O [FERULATE]
Not Active: IC50 [1] | IC50 [2] | IC50 (Adenosine receptor A1) | IC50 [3] | Ki [3] | IC50 (Leukotriene C4 synthase) | IC50 [4] | Ki [4] | IC50 [5] | IC50 (Interstitial collagenase) | IC50 (Cytochrome P450 2E1) | Ki (Cytochrome P450 2E1)

O=C(O)CCc1nc(-c2ccccc2)c(-c2ccccc2)o1 [OXAPROZIN]
Not Active: IC50 [1] | IC50 [2] | IC50 (Adenosine receptor A1) | IC50 [3] | Ki [3] | IC50 (Leukotriene C4 synthase) | IC50 [4] | Ki [4] | IC50 [5] | IC50 (Interstitial collagenase) | IC50 (Cytochrome P450 2E1) | Ki (Cytochrome P450 2E1)

c1ccc(Cn2ccnc2)cc1
Not Active: IC50 [1] | IC50 [2] | IC50 (Adenosine receptor A1) | IC50 [3] | Ki [3] | IC50 (Leukotriene C4 synthase) | IC50 [4] | Ki [4] | IC50 [5] | IC50 (Interstitial collagenase) | IC50 (Cytochrome P450 2E1) | Ki (Cytochrome P450 2E1)

C[C@H]1C[C@H]2[C@@H]3CCC4=CC(=O)C=C[C@]4(C)[C@@]3(F)[C@@H](O)C[C@]2(C)[C@@]1(O)C(=O)CO [BETAMETHASONE]
Not Active: IC50 [1] | IC50 [2] | IC50 (Adenosine receptor A1) | IC50 [3] | Ki [3] | IC50 (Leukotriene C4 synthase) | IC50 [4] | Ki [4] | IC50 [5] | IC50 (Interstitial collagenase) | IC50 (Cytochrome P450 2E1) | Ki (Cytochrome P450 2E1)

Nc1nc(N)c2nc(CNc3ccc(C(=O)N[C@@H](CCC(=O)O)C(=O)O)cc3)cnc2n1 [AMINOPTERIN]
Not Active: IC50 [1] | IC50 [2] | IC50 (Adenosine receptor A1) | IC50 [3] | Ki [3] | IC50 (Leukotriene C4 synthase) | IC50 [4] | Ki [4] | IC50 [5] | IC50 (Interstitial collagenase) | IC50 (Cytochrome P450 2E1) | Ki (Cytochrome P450 2E1)

CC(=O)Nc1ccc2c(c1)Cc1ccccc1-2 [2-ACETYLAMINOFLUORENE]
Not Active: IC50 [1] | IC50 [2] | IC50 (Adenosine receptor A1) | IC50 [3] | Ki [3] | IC50 (Leukotriene C4 synthase) | IC50 [4] | Ki [4] | IC50 [5] | IC50 (Interstitial collagenase) | IC50 (Cytochrome P450 2E1) | Ki (Cytochrome P450 2E1)

C=C(Cl)Cl [1,1-DICHLOROETHENE]
Not Active: IC50 [1] | IC50 [2] | IC50 (Adenosine receptor A1) | IC50 [3] | Ki [3] | IC50 (Leukotriene C4 synthase) | IC50 [4] | Ki [4] | IC50 [5] | IC50 (Interstitial collagenase) | IC50 (Cytochrome P450 2E1) | Ki (Cytochrome P450 2E1)

C#C[C@]1(O)CC[C@H]2[C@@H]3CCC4=CC(=O)CC[C@@H]4[C@H]3CC[C@@]21C [NORETHINDRONE]
Not Active: IC50 [1] | IC50 [2] | IC50 (Adenosine receptor A1) | IC50 [3] | Ki [3] | IC50 (Leukotriene C4 synthase) | IC50 [4] | Ki [4] | IC50 [5] | IC50 (Interstitial collagenase) | IC50 (Cytochrome P450 2E1) | Ki (Cytochrome P450 2E1)

CC[C@H]1OC(=O)[C@H](C)[C@@H](O[C@H]2C[C@@](C)(OC)[C@@H](O)[C@H](C)O2)[C@H](C)[C@@H](O[C@@H]2O[C@H](C)C[C@H](N(C)C)[C@H]2O)[C@](C)(O)C[C@@H](C)C(=O)[C@H](C)[C@@H](O)[C@]1(C)O [ERYTHROMYCIN]
Not Active: IC50 [1] | IC50 [2] | IC50 (Adenosine receptor A1) | IC50 [3] | Ki [3] | IC50 (Leukotriene C4 synthase) | IC50 [4] | Ki [4] | IC50 [5] | IC50 (Interstitial collagenase) | IC50 (Cytochrome P450 2E1) | Ki (Cytochrome P450 2E1)

c1ccc2c(c1)Nc1ccccc1S2 [PHENOTHIAZINE]
Not Active: IC50 [1] | IC50 [2] | IC50 (Adenosine receptor A1) | IC50 [3] | Ki [3] | IC50 (Leukotriene C4 synthase) | IC50 [4] | Ki [4] | IC50 [5] | IC50 (Interstitial collagenase) | IC50 (Cytochrome P450 2E1) | Ki (Cytochrome P450 2E1)

C[C@H](C(=O)O)c1ccc2oc(-c3ccc(F)cc3)nc2c1 [FLUNOXAPROFEN]
Not Active: IC50 [1] | IC50 [2] | IC50 (Adenosine receptor A1) | IC50 [3] | Ki [3] | IC50 (Leukotriene C4 synthase) | IC50 [4] | Ki [4] | IC50 [5] | IC50 (Interstitial collagenase) | IC50 (Cytochrome P450 2E1) | Ki (Cytochrome P450 2E1)

CC1(COc2ccc(CC3SC(=O)NC3=O)cc2)CCCCC1 (configuration not stated) [CIGLITAZONE]
Not Active: IC50 [1] | IC50 [2] | IC50 (Adenosine receptor A1) | IC50 [3] | Ki [3] | IC50 (Leukotriene C4 synthase) | IC50 [4] | Ki [4] | IC50 [5] | IC50 (Interstitial collagenase) | IC50 (Cytochrome P450 2E1) | Ki (Cytochrome P450 2E1)
